Assay: Particle size of unmilled and jet milled Compound X (optical microscopy, Microtrac, Aerosizer, SEM)
Type: physicochemical
From the text: In the studies described below the aerosol performance of micronized Compound X with three different grades of lactose made specifically for inhalation in an Spinhaler® is compared. The carriers studied were milled lactose for inhalation (Respitose™ ML003), sieved lactose for inhalation (Respitose SV003) and granulated lactose for inhalation (Respitose LS243). Each carrier was characterized for particle size, flow properties and morphology. Jet milled Compound X, with an average particle size of 2.8 microns was used in the studies. […] Blends were manufactured with 4% w/w drug loading at a scale of 1 g. Capsules were then filled with 25 mg of blend to achieve a 1 mg nominal dose. Each blend was characterized for blend uniformity, dose uniformity and aerodynamic particle size distribution. Granulated lactose produced the weakest drug aerosolization compared to milled and sieved lactose. […] The delivered shot weight was 92% of target with an in-vitro respirable fraction of 26% and an emitted dose of 34%. The formulation is considered appropriate for animal model studies use however optimization of the formulation and the blending characteristics will be pursued following results from the in-vivo animal studies. Three jet milled samples of Compound X observed using X-ray powder diffraction (XRPD) and thermogravimetry (TGA) that the jet milled samples had similar properties to the unmilled lots. The samples retained their crystalline form. By SEM, it was observed that the jet milled drug was smaller in particle size compared to the unmilled drug, while maintaining the needle-like morphology. Drug particle size ranged from ca. 2-25 μm in length and ca. 2 μm in width with agglomerates up to 50 μm in diameter. Only one of the jet milled lots was used for the described studies below.

O=C(NC1CC1)c1cn(-c2cccc(C#Cc3ccc[n+]([O-])c3)c2)c2ncccc2c1=O [Milled API, N-cyclopropyl-1-[3-(1-oxido-3-pyridinylethynyl)phenyl]-1,4-dihydro[1,8]naphthyridin-4-one-3-carboxamide]
Drug particle size, length (SEM, jet milled): 2-25 μm
Drug particle size, width (SEM, jet milled): ca. 2 μm
agglomerates, diameter (SEM, jet milled): up to 50 μm
average particle size (jet milled drug used in the studies): 2.8 microns

Reference: US20070071692A1, “Aerosol powder formulation” (priority 2005, published 2007)
